Values after ≈ are worked out from the molar mass of the structure shown.
Tested on: Diamond-back moth (PX) (Plutella xylostella)
Experiment: Diamond-back moth larvae topical test (failure to pupate)
Format: in vivo
Conditions: fifth instar larvae, 0.5 µl drop; failure to pupate 5 days later
Method: Fifth instar larvae were treated with a 0.5 µl drop of test compound in acetone. Three replicates of 10 larvae each were used at each dose rate and 5 dose rates were used per compound under test. After treatment, the larvae were maintained at about 22°C, and kill was assessed as failure to pupate 5 days later. LD50 values were calculated as for houseflies.

| Compound | PX (LD50) |
| --- | --- |
| C=CC(C)(C)C1=C(OC(=O)CCCCCCCCC)C(=O)c2ccccc2C1=O [Example 8] | c. 0.1 µg/insect |
| C=CC(C)(C)C1=C(OCc2ccccc2)C(=O)c2ccccc2C1=O [Example 13] | c. 8.0 µg/insect |

Tested on: Pyricularia oryzae (=Magnaporthe grisea)
Experiment: not given
Format: cell-based
Conditions: P. oryzae; 1 mg 1^-1; 7 days

| Compound | % inhibition of growth in colony diameter in agar plates, Activity at 1 mg 1^-1 |
| --- | --- |
| COC(=O)Nc1nc2ccccc2[nH]1 [Carbendazim, carbendazim, reference compound] | 14.7% |

Same assay, conditions: P. oryzae; 5 mg 1^-1; 7 days

| Compound | % inhibition of growth in colony diameter in agar plates, Activity at 5 mg 1^-1 |
| --- | --- |
| COC(=O)Nc1nc2ccccc2[nH]1 [Carbendazim, carbendazim, reference compound] | 99.8% |

Tested on: Houseflies (MD) (Musca domestica)
Experiment: not given
Format: in vivo
Conditions: Tables 10, 13, 14; NA = lack of detectable activity
Method: Female flies were treated on the thorax with a one microlitre drop of test compound dissolved in acetone. Two replicates of 15 flies were used at each dose rate and 6 dose rates were used per compound under test. After treatment, the flies were maintained at a temperature of 20° ± 1°C and kill was assessed 24 and 48 hours after treatment. LD50 values were calculated in micrograms of test compound per fly (see Sawicki et al., Bulletin of the World Health Organisation, 35, 893 (1966) and Sawicki et al., Entomologia and Exp. Appli 10, 253, (1967).

| Compound | MD LD50 (µg/insect) |
| --- | --- |
| CCCCCCC1=C(O)C(=O)c2ccccc2C1=O [-(CH2)5CH3, reference compound] | c20 µg/insect |
| CC1(C2=C(O)C(=O)c3ccccc3C2=O)C=CCCC1 (stereo not shown) [Example 31] | 6 µg/insect |

Same assay, conditions: topical 1 µl drop in acetone on female flies; kill assessed 24 and 48 hours

| Compound | MD (LD50) |
| --- | --- |
| C=CC(C)(C)C1=C(OCc2ccccc2)C(=O)c2ccccc2C1=O [Example 13] | > 20 µg/insect |

Tested on: Rhizoctonia solani
Experiment: Fungitoxicity in vitro on potato dextrose agar
Format: cell-based
Conditions: R. solani; 1 mg 1^-1; 4 days

| Compound | % inhibition of growth in colony diameter in agar plates, Activity at 1 mg 1^-1 |
| --- | --- |
| COC(=O)Nc1nc2ccccc2[nH]1 [Carbendazim, carbendazim, reference compound] | 3.3% |

Same assay, conditions: R. solani; 5 mg 1^-1; 4 days

| Compound | % inhibition of growth in colony diameter in agar plates, Activity at 5 mg 1^-1 |
| --- | --- |
| COC(=O)Nc1nc2ccccc2[nH]1 [Carbendazim, carbendazim, reference compound] | 82.4% |

Tested on: Mustard beetles (PC) (Phaedon cochleariae Fab)
Experiment: not given
Format: in vivo
Conditions: 1 µl acetone drop applied ventrally to adults; kill at 48 hours; NA = lack of detectable activity
Method: A one microlitre drop of an acetone solution of the test compound was applied ventrally to adult mustard beetles using a micro drop applicator. The treated insects were maintained for 48 hours after which time kill was assessed. Two replicates each of 20 to 25 mustard beetles were used at each dose level and 5 dose levels were treated comparably. LD50 values were calculated as for houseflies.

| Compound | PC (LD50) |
| --- | --- |
| C=CC(C)(C)C1=C(OC(=O)CCCCCCCCC)C(=O)c2ccccc2C1=O [Example 8] | c. 8.0 µg/insect |
| C=CC(C)(C)C1=C(OCc2ccccc2)C(=O)c2ccccc2C1=O [Example 13] | > 20 µg/insect |

Same assay, conditions: Tables 10, 13, 14; NA = lack of detectable activity

| Compound | PC LD50 (µg/insect) |
| --- | --- |
| CCCCCCC1=C(O)C(=O)c2ccccc2C1=O [-(CH2)5CH3, reference compound] | c7 µg/insect |
| CC1(C2=C(O)C(=O)c3ccccc3C2=O)C=CCCC1 (stereo not shown) [Example 31] | 5 µg/insect |

Tested on: Myzus persicae, susceptible strain (US1L)
Experiment: Aphid dip test, susceptible strain
Format: in vivo
Conditions: read-out: MP % kill 100 ppm
Method: Activity against resistant (R) and susceptible (S) strains of aphid (Myzus persicae) was assessed using the following method.
Entrapment rings of fluon were painted halfway up the inside of 4 cm lengths of glass tubing (1.5 cm diameter), and squares of insect-proof gauze were attached to one end of each tube by elastic bands. Fifteen apterous adults were then gently transferred into the tubes using a sable-hair brush, and the tube sealed with a second gauze square.
Tubes containing aphids were dipped into insecticide solutions for 10 seconds, dried on blotting paper, and then inverted and tapped to cause treated aphids to fall to the unimmersed end of each tube. Handling mortality (usually zero or very slight) was scored after 1 hour, when aphids were transferred onto chinese cabbage leaf-discs (35 mm diameter) on an agar bed (25 mm in depth) in disposible plastic containers (30 mm high) and confined by applying a ring of fluon to the exposed lip of the container. Containers were store upright, without lids, in a constant environment facility maintained at 25°C under continuous room lighting. Mortality was assessed at 24, 48 and 72 hours. Two replicates of 15 aphids each were used at each dose rate and 5 or 6 dose rates were used per compound under test.
The test was carried out using a susceptible strain of aphids (US1L) collected in the field in East Anglia, UK and an extremely resistant strain of aphids (794Jz) (R3 esterase, sensitive AChE) collected from glasshouses in the UK.
The values given are % mortality corrected for control data. The control comprised the test solution without active ingredient.

| Compound | mortality at 100 ppm |
| --- | --- |
| CCCCCCC1=C(O)C(=O)c2ccccc2C1=O [-(CH2)5CH3, reference compound] | 0% |
| CC1(C2=C(O)C(=O)c3ccccc3C2=O)C=CCCC1 (stereo not shown) [Example 31] | 5% |

Tested on: Mites (TU) (Tetranychus urticae), susceptible strain (GSS)
Experiment: Mite immersion test, susceptible strain GSS
Format: in vivo
Conditions: 72 h, Tables 10, 13, 14, susceptible strain, NA = lack of detectable activity, read-out: TU LC50 (ppm/insect)
Method: 25 adult female mites were immersed in 35 µl of a solution of the test compound in a 1:4 acetone-water mixture for 30 seconds. The treated insects were maintained at 21° ± 2°C and kill was assessed 72 hours after treatment. […] Three replicates of 25 mites each were used at each dose rate and 5 or 6 dose rates were used per compound under test. LC50 values were calculated in ppm of the solution of the test compound per insect. The test was carried out using a susceptible strain of mites (GSS) supplied by Schering, AG, Berlin.

| Compound | LC50 |
| --- | --- |
| CCCCCCC1=C(O)C(=O)c2ccccc2C1=O [-(CH2)5CH3, reference compound] | 170 µg/mL (≈ 658 µM) |
| CC1(C2=C(O)C(=O)c3ccccc3C2=O)C=CCCC1 (stereo not shown) [Example 31] | ~50 µg/mL (≈ 186 µM) |

Same assay, conditions: ppm solution of test compound, 30 seconds immersion, kill at 72 hours, read-out: TU(GSS) (LC50)

| Compound | LC50 |
| --- | --- |
| C=CC(C)(C)C1=C(OC(=O)CCCCCCCCC)C(=O)c2ccccc2C1=O [Example 8] | 630 µg/mL (≈ 1590 µM) |
| C=CC(C)(C)C1=C(OCc2ccccc2)C(=O)c2ccccc2C1=O [Example 13] | > 1000 µg/mL |

Tested on: Whitefly (BT) (Bemisia tabaci), susceptible strain (SUD-S)
Experiment: Whitefly residual film vial test, susceptible strain SUD-S
Format: in vivo
Conditions: 48 h, Tables 10, 13, 14, susceptible strain, NA = lack of detectable activity, read-out: BT LC50 (ppm/insect)
Method: Acetone solutions (0.100 ml) of the test compounds were placed in 10 ml glass vials and evaporated with rotation to deposit a film of the compound. Thirty adult whiteflies were placed inside the vial, then after 60 minutes, the treated insects were transferred onto untreated cotton leaf discs which were kept moist on a bed of agar gel. The temperature was maintained at 25°C and mortality assessed after 48 hours. Three replicates were used at each of 5 to 7 dose levels per compound.

| Compound | LC50 |
| --- | --- |
| CCCCCCC1=C(O)C(=O)c2ccccc2C1=O [-(CH2)5CH3, reference compound] | 9.4 µg/mL (≈ 36.4 µM) |
| CC1(C2=C(O)C(=O)c3ccccc3C2=O)C=CCCC1 (stereo not shown) [Example 31] | 4.7 µg/mL (≈ 17.5 µM) |

Same assay, conditions: ppm solution of test compound, 60 minutes film exposure, mortality after 48 hours, read-out: BT(SUD-S) (LC50)

| Compound | LC50 |
| --- | --- |
| C=CC(C)(C)C1=C(OCc2ccccc2)C(=O)c2ccccc2C1=O [Example 13] | > 1000 µg/mL |

— patent EP0802730B1, “PESTICIDAL COMPOUNDS” (BTG INTERNATIONAL LIMITED, priority 1995, dated 1996)
